Reference: patent US20200188466A1, “COMPOSITIONS OF SCHISANDRA EXTRACTS AND METHODS THEREOF” (Reyoung Corporation, priority 2017, published 2020)
Read-outs that look alike come from different tables or passages of the source.

Key:
[1] = Plasma kinetic study of celastrol with and without Schisandrin A; assay type: in vivo, Sprague Dawley rats; settings: rats; for Cmax / Tmax / AUC(0-t) / AUC(0-inf) / MRT last / MRT inf / half-life: male, Sprague Dawley, rat, plasma, po, 1.8 mg/kg; for AUC(0-t): read-out: AUC0→t of celastrol; for AUC(0-inf): read-out: AUC0→∞ of celastrol; for MRT last: read-out: MRT0→t of celastrol; for MRT inf: read-out: MRT0→∞ of celastrol; for half-life: read-out: T1/2 of celastrol (converted)
Procedure: (§1) 42 Male Sprague Dawley rats (weight, 210-250 g) were maintained on a 12-hour light/dark cycle with free access to water and lab chow for 10-14 h prior to the experiment. Rats were randomly divided into 7 groups (n=6 each) and groups 2-7 received 0 mg/kg, 5.5 mg/kg, and 11.0 mg/kg, 22.0 mg/kg, 44.0 mg/kg and 88.0 mg/kg of Schisandrin A in 1% CMC-Na (300-800 cps) via oral administration, respectively. After 5 minutes, all the groups received 1.8 mg/kg of celastrol in a solution of 2% DMSO-98% sterile water via oral administration.
After celastrol treatment, blood samples were collected from individual rat at 0.25 h, 0.5 h, 1 h, 2 h, 4 h, 8 h, 12 h, 24 h, 36 h, and 48 h, respectively. Plasma was separated by centrifugation at 8000 rpm for 6 minutes at 4° C. and kept at −80° C. until analysis. Plasma homogenate was injected into LC-MS/MS for analysis.

[2] = Toxicological study: serum chemistry after celastrol with and without Schisandrin A; assay type: in vivo, Sprague Dawley rats; settings: rats, 24 hours after celastrol 1.8 mg/kg oral
Procedure: as §1
At 24 hours of celastrol treatment, blood was collected from the rats in plasma kinetic study.

[3] = Group1, celastrol 1.8 mg/kg oral, no Schisandrin A dose stated
[4] = Group2, Schisandrin A 0 mg/kg oral 5 min before celastrol 1.8 mg/kg oral
[5] = Group3, Schisandrin A 5.5 mg/kg oral 5 min before celastrol 1.8 mg/kg oral
[6] = Group4, Schisandrin A 11.0 mg/kg oral 5 min before celastrol 1.8 mg/kg oral
[7] = Group5, Schisandrin A 22.0 mg/kg oral 5 min before celastrol 1.8 mg/kg oral
[8] = Group6, Schisandrin A 44.0 mg/kg oral 5 min before celastrol 1.8 mg/kg oral
[9] = Group7, Schisandrin A 88.0 mg/kg oral 5 min before celastrol 1.8 mg/kg oral
[10] = Group 1, no Schisandrin A dose stated
[11] = Group 2, Schisandrin A 0 mg/kg oral
[12] = Group 3, Schisandrin A 5.5 mg/kg oral
[13] = Group 4, Schisandrin A 11.0 mg/kg oral
[14] = Group 5, Schisandrin A 22.0 mg/kg oral
[15] = Group 6, Schisandrin A 44.0 mg/kg oral
[16] = Group 7, Schisandrin A 88.0 mg/kg oral

For `CC1=C(O)C(=O)C=C2C1=CC=C1[C@@]2(C)CC[C@@]2(C)[C@@H]3C[C@](C)(C(=O)O)CC[C@]3(C)CC[C@]12C` [celastrol], the T1/2 of celastrol [1, 3] was 10.07 ± 2.48 h, the Cmax [1, 3] was 7.03 ± 2.65 ng/mL and the Tmax [1, 3] was 5.33 ± 2.07 h. The AUC(0-t) [1, 3] was 103 ± 28.2 ng·h/mL, the AUC(0-inf) [1, 3] was 125 ± 22.4 ng·h/mL and the MRT last [1, 3] was 12.1 ± 1.74 h. It also gave an MRT inf [1, 3] of 12.1 ± 3.49 h, a Cmax [1, 4] of 5.94 ± 1.38 ng/mL and a Tmax [1, 4] of 4 h. The AUC(0-t) [1, 4] was 93.2 ± 2.74 ng·h/mL, the AUC(0-inf) [1, 4] was 107 ± 19.6 ng·h/mL and the MRT last [1, 4] was 12 ± 1.82 h. It also gave an MRT inf [1, 4] of 12 ± 2.33 h, a half-life [1, 4] of 12.1 ± 1.77 h and a Cmax [1, 5] of 7.13 ± 1.86 ng/mL. It also gave a Tmax [1, 5] of 5.6 ± 3.58 h, an AUC(0-t) [1, 5] of 117 ± 27.8 ng·h/mL and an AUC(0-inf) [1, 5] of 124 ± 27.9 ng·h/mL. The MRT last [1, 5] was 13.1 ± 2.27 h, the MRT inf [1, 5] was 18.8 ± 8.57 h and the half-life [1, 5] was 11.5 ± 5.18 h. It also gave a Cmax [1, 6] of 7.08 ± 0.57 ng/mL, a Tmax [1, 6] of 4 h and an AUC(0-t) [1, 6] of 123 ± 20.1 ng·h/mL. The AUC(0-inf) [1, 6] was 133 ± 20.1 ng·h/mL, the MRT last [1, 6] was 12.9 ± 1.05 h and the MRT inf [1, 6] was 15.7 ± 1.91 h. For the same molecule, the half-life [1, 6] was 9.1 ± 1.71 h, the Cmax [1, 7] was 7.45 ± 2.72 ng/mL and the Tmax [1, 7] was 9.33 ± 4.13 h. The AUC(0-t) [1, 7] was 146 ± 48.4 ng·h/mL, the AUC(0-inf) [1, 7] was 121 ± 31.7 ng·h/mL and the MRT last [1, 7] was 14.2 ± 1.26 h. It also gave an MRT inf [1, 7] of 16.9 ± 1.65 h, a half-life [1, 7] of 10.3 ± 1.76 h and a Cmax [1, 8] of 7.43 ± 3.47 ng/mL. For the same molecule, the Tmax [1, 8] was 10.7 ± 3.27 h, the AUC(0-t) [1, 8] was 156 ± 68.5 ng·h/mL and the AUC(0-inf) [1, 8] was 198 ± 94.4 ng·h/mL. It also gave an MRT last [1, 8] of 14.9 ± 2.32 h, an MRT inf [1, 8] of 33.1 ± 20.5 h and a half-life [1, 8] of 23.8 ± 18 h. It also gave a Cmax [1, 9] of 9.15 ± 6.48 ng/mL, a Tmax [1, 9] of 6.67 ± 4.13 h and an AUC(0-t) [1, 9] of 171 ± 99.1 ng·h/mL. The AUC(0-inf) [1, 9] was 186 ± 108 ng·h/mL, the MRT last [1, 9] was 14.2 ± 1.18 h and the MRT inf [1, 9] was 16.7 ± 1.68 h. The half-life [1, 9] was 9.29 ± 1.97 h, the “Serum ALT” value [2, 10] was 54.5 ± 6.7 U/L and the “Serum AST” value [2, 10] was 100.0 ± 7.0 U/L. The Serum creatinine [2, 10] was 0.48 ± 0.01 mg/dL, the Serum urea [2, 10] was 19.6 ± 2.7 mg/dL and the “Serum ALT” value [2, 11] was 51.2 ± 3.5 U/L. For the same molecule, the “Serum AST” value [2, 11] was 92.0 ± 6.0 U/L, the Serum creatinine [2, 11] was 0.49 ± 0.05 mg/dL and the Serum urea [2, 11] was 20.1 ± 1.8 mg/dL. For the same molecule, the “Serum ALT” value [2, 12] was 54.5 ± 5.7 U/L, the “Serum AST” value [2, 12] was 91.0 ± 4.0 U/L and the Serum creatinine [2, 12] was 0.48 ± 0.02 mg/dL. The Serum urea [2, 12] was 19.4 ± 2.5 mg/dL, the “Serum ALT” value [2, 13] was 52.5 ± 5.8 U/L and the “Serum AST” value [2, 13] was 91.0 ± 9.0 U/L. The Serum creatinine [2, 13] was 0.49 ± 0.02 mg/dL, the Serum urea [2, 13] was 18.3 ± 1.5 mg/dL and the “Serum ALT” value [2, 14] was 49.3 ± 6.1 U/L. For the same molecule, the “Serum AST” value [2, 14] was 106.0 ± 14.0 U/L, the Serum creatinine [2, 14] was 0.50 ± 0.02 mg/dL and the Serum urea [2, 14] was 16.5 ± 1.5 mg/dL. The “Serum ALT” value [2, 15] was 52.4 ± 8.3 U/L, the “Serum AST” value [2, 15] was 111.0 ± 40.0 U/L and the Serum creatinine [2, 15] was 0.49 ± 0.01 mg/dL. The Serum urea [2, 15] was 17.9 ± 4.0 mg/dL, the “Serum ALT” value [2, 16] was 53.4 ± 7.1 U/L and the “Serum AST” value [2, 16] was 92.0 ± 9.0 U/L. The Serum creatinine [2, 16] was 0.49 ± 0.03 mg/dL and the Serum urea [2, 16] was 18.8 ± 3.4 mg/dL.
